ChEMBL document CHEMBL6153101, “Chamilactones A and B, Sesquiterpenes from the Endophytic Fungus Chaetomium nigricolor F5” (J Nat Prod, 2025)
Calls of active or inactive are those of the source. The rule behind the calls is not given here.

What was measured:
Type in all cases: functional, cell-based
BV-2 [1] = assay: Anti-neuroinflammatory effect in mouse BV-2 cells assessed as suppression of LPS-mediated IL-6 secretion preincubated for 2 hrs followed by stimulation with LPS for 24 hrs by ELISA assay; conditions: dose 10-40 µM, time 26.0 hrs
BV-2 [2] = assay: Anti-neuroinflammatory effect in mouse BV-2 cells assessed as suppression of LPS-mediated TNF-alpha secretion preincubated for 2 hrs followed by stimulation with LPS for 24 hrs by ELISA assay; conditions: dose 10-40 µM, time 26.0 hrs
BV-2 [3] = assay: Anti-neuroinflammatory effect in mouse BV-2 cells assessed as decrease in LPS-mediated p-p65 expression preincubated for 2 hrs followed by stimulation with LPS for 24 hrs by Western blot analysis; conditions: dose 10-40 µM, time 26.0 hrs
BV-2 [4] = assay: Anti-neuroinflammatory effect in mouse BV-2 cells assessed as decrease in LPS-mediated TLR4 expression at 10 to 40 uM preincubated for 2 hrs followed by stimulation with LPS for 24 hrs by Western blot analysis; conditions: dose 10-40 µM, time 26.0 hrs
BV-2 [5] = assay: Anti-neuroinflammatory effect in mouse BV-2 cells assessed as inhibition of LPS-mediated nuclear translocation of NF-kappaB p65 at 20 to 40 uM preincubated for 2 h followed by stimulation with LPS for 1 h by immunocytochemical analysis; conditions: dose 20-40 µM, time 3.0 hrs

For `Cc1c2c(cc3c1CCOC3=O)CC(C)(C)C2`, the Activity (BV-2 [1]) was “Dose-dependent-effect; Exhibited Most Potent Effect”, the Activity (BV-2 [2]) was “Dose-dependent-effect; Exhibited Most Potent Effect” and the Activity (BV-2 [3]) was “Dose-dependent-effect”. The Activity (BV-2 [4]) was “Active” and the inhibition (BV-2 [5]) was “Active”.
